Source: patent US12257239B1, “Cytotoxic treatment of cancer cells” (IMAM MOHAMMAD IBN SAUD ISLAMIC UNIVERSITY, priority 2024, dated 2025)
Values after ≈ are worked out from the molar mass of the structure shown.

Assays:
[1] = test system: pharynx squamous carcinoma (FaDu); test: Growth inhibition of cancerous cells, FaDu; format: cell-based; settings: Homo sapiens
Method: (§1) The compound of Formula I was tested for its antitumor activity against various cancer cell lines, in vitro, in non-small cell lung cancer (A549), colorectal carcinoma (HCT116), prostate cancer (PC3), pharynx squamous carcinoma (FaDu), triple-negative breast cancer (MDA-MB-468), cervical cancer (HeLa), and human oral epithelial normal cell line (OEC).

[2] = test system: cervical cancer (HeLa); test: Growth inhibition of cancerous cells, HeLa; format: cell-based; settings: Homo sapiens
Method: as §1

[3] = test system: colorectal carcinoma (HCT116); test: Growth inhibition of cancerous cells, HCT116; format: cell-based; settings: Homo sapiens, HCT-116; HCT116, 100 μg/mL; read-out: growth inhibition percentage
Method: as §1

[4] = test system: human non-small cell lung cancer (A549); test: Growth inhibition of cancerous cells, A549; format: cell-based; settings: for IC50: A549
Method: as §1

[5] = test system: triple-negative breast cancer (MDA-MB-468); test: Growth inhibition of cancerous cells, MDA-MB-468; format: cell-based; settings: Homo sapiens; for IC50: MDA-MB-468
Method: as §1

[6] = test system: human oral epithelial normal cell line (OEC); settings: 100 μg/mL
Method: as §1

[7] = test system: prostate cancer (PC3); test: Growth inhibition of cancerous cells, PC3; format: cell-based; settings: Homo sapiens; PC3, 100 μg/mL; read-out: growth inhibition percentage
Method: as §1

[8] = 100 μg/mL, read-out: growth inhibition percentage

Compound | IC50 [1] [µg/mL] | inhibition at 100 µg/mL [1, 8] [%] | IC50 [2] [µg/mL] | inhibition at 100 µg/mL [2, 8] [%] | inhibition at 100 µg/mL [3] [%] | IC50 [4] [µg/mL] | inhibition at 100 µg/mL ([4]; A549, 100 μg/mL, read-out: growth inhibition percentage) [%] | IC50 [5] [µg/mL] | inhibition at 100 µg/mL ([5]; MDA-MB-468, 100 μg/mL, read-out: growth inhibition percentage) [%] | growth inhibition percentage [6] [%] | inhibition at 100 µg/mL [7] [%]
O=C1S/C(=C\c2cc([N+](=O)[O-])ccc2O)C(=O)N1CCN1C(=O)c2ccccc2C1=O [Formula I, 3-(2-(1,3-dioxoisoindolin-2-yl)ethyl)-5-(2-hydroxy-5-nitrobenzylidene)thiazolidine-2,4-dione] | 5.03 | 89.1 | 5.03 | 70.8 | 85.7 | 6 | 78 | 5.5 | 90.8 | 48.89 | 83.8
COc1cccc2c1C(=O)c1c(O)c3c(c(O)c1C2=O)C[C@@](O)(C(=O)CO)C[C@@H]3O[C@H]1C[C@H](N)[C@H](O)[C@H](C)O1 [doxorubicin, reference compound] | 13.2 (≈ 24.2 µM) | – | 4.83 (≈ 8.89 µM) | – | – | 7.63 (≈ 14 µM) | – | 7.76 (≈ 14.3 µM) | – | – | –
